Reference: the supplement of paper PMC10307832

What was measured:
Assay in all cases: relative viability (nuclei count vs DMSO), 5 days (fraction); higher = more cells survive
NCI-H1355 = tested on: NCI-H1355
Summary of the method: (§1)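 Dosing by pin tool came one day after lung cancer cell lines were seeded in 1536-well plates, using either one drug or a fixed anchor-drug dose plus five library-drug doses (not always all listed) in √10 steps. After 5 days, nuclei were counted on 4× images. Relative viability is treated-well nuclei count divided by vehicle-well nuclei count, and values are medians of duplicate plates.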

HOP-62 = tested on: HOP-62
Summary of the method: as §1

201T = tested on: 201T
Summary of the method: as §1

LCLC-97TM1 = tested on: LCLC-97TM1
Summary of the method: as §1

NCI-H2405 = tested on: NCI-H2405
Summary of the method: as §1

NCI-H1437 = tested on: NCI-H1437
Summary of the method: as §1

NCI-H1650 = tested on: NCI-H1650
Summary of the method: as §1

RERF-LC-KJ = tested on: RERF-LC-KJ
Summary of the method: as §1

SK-LU-1 = tested on: SK-LU-1
Summary of the method: as §1

HCC-44 = tested on: HCC-44
Summary of the method: as §1

NCI-H2228 = tested on: NCI-H2228
Summary of the method: as §1

NCI-H3122 = tested on: NCI-H3122
Summary of the method: as §1

NCI-H727 = tested on: NCI-H727
Summary of the method: as §1

CAL-12T = tested on: CAL-12T
Summary of the method: as §1

NCI-H647 = tested on: NCI-H647
Summary of the method: as §1

HCC-827 = tested on: HCC-827
Summary of the method: as §1

BEN = tested on: BEN
Summary of the method: as §1

LXF-289 = tested on: LXF-289
Summary of the method: as §1

NCI-H322M = tested on: NCI-H322M
Summary of the method: as §1

NCI-H2023 = tested on: NCI-H2023
Summary of the method: as §1

NCI-H2087 = tested on: NCI-H2087
Summary of the method: as §1

LCLC-103H = tested on: LCLC-103H
Summary of the method: as §1

## COc1cc(N2CCC(C(N)=O)CC2)ccc1Nc1nc(N)c(Cl)c(Nc2ccccc2S(=O)(=O)C(C)C)n1 [HG-5-88-01] + CC(C)C[C@H](NC(=O)[C@H](Cc1ccccc1)NC(=O)c1cnccn1)B(O)O [Bortezomib] (partner 0.002 µM)
NCI-H1355; first compound 0.04 µM
  relative viability: 1.37
NCI-H1355; first compound 0.1265 µM
  relative viability: 1.37
NCI-H1355; first compound 0.4 µM
  relative viability: 1.21
NCI-H1355; first compound 1.265 µM
  relative viability: 1.14
NCI-H1355; first compound 4 µM
  relative viability: 0.96
HOP-62; first compound 0.04 µM
  relative viability: 0.684
HOP-62; first compound 0.1265 µM
  relative viability: 0.732
HOP-62; first compound 0.4 µM
  relative viability: 0.77
HOP-62; first compound 1.265 µM
  relative viability: 0.76
HOP-62; first compound 4 µM
  relative viability: 0.732
201T; first compound 0.04 µM
  relative viability: 1.12
201T; first compound 0.1265 µM
  relative viability: 1.03
201T; first compound 0.4 µM
  relative viability: 1.1
201T; first compound 1.265 µM
  relative viability: 1.06
201T; first compound 4 µM
  relative viability: 1.2
LCLC-97TM1; first compound 0.04 µM
  relative viability: 1.05
LCLC-97TM1; first compound 0.1265 µM
  relative viability: 0.313
LCLC-97TM1; first compound 0.4 µM
  relative viability: 0.308
LCLC-97TM1; first compound 1.265 µM
  relative viability: 0.546
LCLC-97TM1; first compound 4 µM
  relative viability: 0.213
NCI-H2405; first compound 0.04 µM
  relative viability: 1.01
NCI-H2405; first compound 0.1265 µM
  relative viability: 0.977
NCI-H2405; first compound 0.4 µM
  relative viability: 0.929
NCI-H2405; first compound 1.265 µM
  relative viability: 0.933
NCI-H2405; first compound 4 µM
  relative viability: 0.946
NCI-H1437; first compound 0.04 µM
  relative viability: 0.491
NCI-H1437; first compound 0.1265 µM
  relative viability: 0.477
NCI-H1437; first compound 0.4 µM
  relative viability: 0.539
NCI-H1437; first compound 1.265 µM
  relative viability: 0.401
NCI-H1437; first compound 4 µM
  relative viability: 0.263
NCI-H1650; first compound 0.04 µM
  relative viability: 0.207
NCI-H1650; first compound 0.1265 µM
  relative viability: 0.219
NCI-H1650; first compound 0.4 µM
  relative viability: 0.195
NCI-H1650; first compound 1.265 µM
  relative viability: 0.185
NCI-H1650; first compound 4 µM
  relative viability: 0.189
RERF-LC-KJ; first compound 0.04 µM
  relative viability: 1.23
RERF-LC-KJ; first compound 0.1265 µM
  relative viability: 1.19
RERF-LC-KJ; first compound 0.4 µM
  relative viability: 1.08
RERF-LC-KJ; first compound 1.265 µM
  relative viability: 0.992
RERF-LC-KJ; first compound 4 µM
  relative viability: 0.639
SK-LU-1; first compound 0.04 µM
  relative viability: 0.976
SK-LU-1; first compound 0.1265 µM
  relative viability: 1.2
SK-LU-1; first compound 0.4 µM
  relative viability: 1.07
SK-LU-1; first compound 1.265 µM
  relative viability: 0.973
SK-LU-1; first compound 4 µM
  relative viability: 0.336
HCC-44; first compound 0.04 µM
  relative viability: 0.901
HCC-44; first compound 0.1265 µM
  relative viability: 0.868
HCC-44; first compound 0.4 µM
  relative viability: 0.679
HCC-44; first compound 1.265 µM
  relative viability: 0.832
HCC-44; first compound 4 µM
  relative viability: 0.754
NCI-H2228; first compound 0.04 µM
  relative viability: 0.363
NCI-H2228; first compound 0.1265 µM
  relative viability: 0.478
NCI-H2228; first compound 0.4 µM
  relative viability: 0.292
NCI-H2228; first compound 1.265 µM
  relative viability: 0.255
NCI-H2228; first compound 4 µM
  relative viability: 0.345
NCI-H3122; first compound 0.04 µM
  relative viability: 0.894
NCI-H3122; first compound 0.1265 µM
  relative viability: 0.647
NCI-H3122; first compound 0.4 µM
  relative viability: 0.335
NCI-H3122; first compound 1.265 µM
  relative viability: 0.296
NCI-H3122; first compound 4 µM
  relative viability: 0.216
NCI-H727; first compound 0.04 µM
  relative viability: 0.689
NCI-H727; first compound 0.1265 µM
  relative viability: 0.924
NCI-H727; first compound 0.4 µM
  relative viability: 0.769
NCI-H727; first compound 1.265 µM
  relative viability: 0.643
NCI-H727; first compound 4 µM
  relative viability: 0.388
CAL-12T; first compound 0.04 µM
  relative viability: 1.16
CAL-12T; first compound 0.1265 µM
  relative viability: 0.897
CAL-12T; first compound 0.4 µM
  relative viability: 0.837
CAL-12T; first compound 1.265 µM
  relative viability: 0.955
CAL-12T; first compound 4 µM
  relative viability: 0.579
NCI-H647; first compound 0.04 µM
  relative viability: 1.02
NCI-H647; first compound 0.1265 µM
  relative viability: 0.826
NCI-H647; first compound 1.265 µM
  relative viability: 1.07
NCI-H647; first compound 4 µM
  relative viability: 0.967
HCC-827; first compound 0.04 µM
  relative viability: 1.07
HCC-827; first compound 0.1265 µM
  relative viability: 1.05
HCC-827; first compound 0.4 µM
  relative viability: 1.06
HCC-827; first compound 1.265 µM
  relative viability: 1.14
HCC-827; first compound 4 µM
  relative viability: 0.472
BEN; first compound 0.04 µM
  relative viability: 0.652
BEN; first compound 0.1265 µM
  relative viability: 0.752
BEN; first compound 0.4 µM
  relative viability: 0.714
BEN; first compound 1.265 µM
  relative viability: 0.841
BEN; first compound 4 µM
  relative viability: 0.791
LXF-289; first compound 0.04 µM
  relative viability: 1.04
LXF-289; first compound 0.1265 µM
  relative viability: 0.994
LXF-289; first compound 0.4 µM
  relative viability: 0.909
LXF-289; first compound 1.265 µM
  relative viability: 1.05
LXF-289; first compound 4 µM
  relative viability: 0.981
NCI-H322M; first compound 0.04 µM
  relative viability: 1.22
NCI-H322M; first compound 0.1265 µM
  relative viability: 1.04
NCI-H322M; first compound 0.4 µM
  relative viability: 1.38
NCI-H322M; first compound 1.265 µM
  relative viability: 1.23
NCI-H322M; first compound 4 µM
  relative viability: 1.08
NCI-H2023; first compound 0.04 µM
  relative viability: 1.08
NCI-H2023; first compound 0.1265 µM
  relative viability: 1.34
NCI-H2023; first compound 0.4 µM
  relative viability: 0.753
NCI-H2023; first compound 1.265 µM
  relative viability: 0.542
NCI-H2023; first compound 4 µM
  relative viability: 0.454
NCI-H2087; first compound 0.04 µM
  relative viability: 0.818
NCI-H2087; first compound 0.1265 µM
  relative viability: 0.692
NCI-H2087; first compound 0.4 µM
  relative viability: 0.713
NCI-H2087; first compound 1.265 µM
  relative viability: 1.01
NCI-H2087; first compound 4 µM
  relative viability: 0.934
LCLC-103H; first compound 0.04 µM
  relative viability: 1.02
LCLC-103H; first compound 0.1265 µM
  relative viability: 0.995
LCLC-103H; first compound 0.4 µM
  relative viability: 0.913
LCLC-103H; first compound 1.265 µM
  relative viability: 1.01
LCLC-103H; first compound 4 µM
  relative viability: 1.01
